In patent publication US20050032646A1, “Agents for the regulation of gametophytic self-incompatibility and a control method for the breakdown of gametophytic self-incompatibility using the agents” (priority 2002, published 2005):
Blank lines part the entries; values can stand above or below the molecule they belong to.

Tests used:
[1] = system: style-specific S RNase of Fuji apple; assay: Inhibition of the activity of a style-specific S RNase by the agents; format: biochemical; conditions: for inhibiting effect for a style-specific S RNase: enzyme assay, result in words; for OD (2.0 mM): optical density at 260 nm (A260), agent 2.0 mM, no treatment 1.10
Protocol: Inhibition of S RNase activity by an agent of the present invention was measured as follows: The standard solution of 500 μL of 10 mM sodium phosphate (pH 7.0) with an agent (2.0 mM), and 500 μL of torula yeast rRNA (5 mg/mL) was pre-incubated for 10 min at 37° C. To the substrate solution, the 20 μL of the style-specific S RNase (200 ng) of Fuji apple was added, then the solution was incubated for 30 min at 37° C. A fraction of 200 μL was collected and 40 μL of stop buffer (ice-cold 25% HCIO4, 0.75% uranyl acetate) was added, then mixed and centrifuged at 12,000 rpm for 5 min. And 50 μL of the supernatant was diluted with 950 μL of dd H2O, then the solution was centrifuged and measured the optical density at 260 nm (A260) (Singh A. et al., Plant Physilolgy, 96: 61-68,1991).

Hongro apple = assay: Breakdown of the self-incompatibility in Hongro apple (self-pollination rate, field); format: in vivo; conditions: 25 days after the treatment
Protocol: In the field application experiment, Hongro apple (the Rosaceae) which has a very low self-pollination rate (<5%) was isolated single-genetically by covering up whole plants with a fine-meshed net to exclude any pollinating insects. The agent of the present invention was treated enough to get-wet flowers at various concentrations with a micro-spray at 9:00-11:00 AM. The target of the agent was the first-blooming primary apple flower. The self-pollination rate was investigated 25 days after the treatment and compared with no treatment and artificial cross-pollination.

Molecule: O=S(=O)([O-])[O-].[Ca+2] [CaSO4, reference compound]
inhibiting effect for a style-specific S RNase [1]: didn't show any positive inhibiting effect

Molecule: COCCOCC(=O)[O-].COCCOCC(=O)[O-].[Cu+2] [Cu(II) 2-(2-methoxyethoxy) acetate]
self-pollination rate (Hongro apple; concentration 0.01 mM): >10% | self-pollination rate (Hongro apple; concentration 0.03 mM): >30% | self-pollination rate (Hongro apple; concentration 0.10 mM): >50% | self-pollination rate (Hongro apple; concentration 0.30 mM): >50% | self-pollination rate (Hongro apple; concentration 1.0 mM): >50%

Molecule: COCCOC(C)C(=O)[O-].COCCOC(C)C(=O)[O-].[Cu+2] (stereo not shown) [Cu(II) 2-(2-methoxyethoxy)propionate, Cu(II) 2-(2-methoxyethoxy) propionate]
OD (2.0 mM) [1]: 0.64

Molecule: CCCOCCOCCOCC(=O)[O-].CCCOCCOCCOCC(=O)[O-].[Cu+2] [Cu(II) 2-(2-propoxyethoxy)ethoxyacetate, Cu(II) 2-(2-propoxyethoxy) ethoxyacetate]
OD (2.0 mM) [1]: 0.67

Molecule: COC(C)C(=O)[O-].COC(C)C(=O)[O-].[Cu+2] (stereo not shown) [Cu(II) 2-methoxypropionate]
OD (2.0 mM) [1]: 0.72

Molecule: COCCOCCOCC(=O)[O-].COCCOCCOCC(=O)[O-].[Cu+2] [Cu(II) 2-{2-(2-methoxyethoxy)ethoxy} acetate]
self-pollination rate (Hongro apple; concentration 0.01 mM): >10% | self-pollination rate (Hongro apple; concentration 0.03 mM): >20% | self-pollination rate (Hongro apple; concentration 0.10 mM): >50% | self-pollination rate (Hongro apple; concentration 0.30 mM): >50% | self-pollination rate (Hongro apple; concentration 1.0 mM): >50%

Molecule: CCOCCOc1ccc(S(=O)(=O)[O-])cc1.CCOCCOc1ccc(S(=O)(=O)[O-])cc1.[Cu+2] [Cu(II) 4-(2-ethoxyethoxy) benzene sulfonate]
OD (2.0 mM) [1]: 0.72

Molecule: COCCOCCOc1ccc(S(=O)(=O)[O-])cc1.COCCOCCOc1ccc(S(=O)(=O)[O-])cc1.[Cu+2] [Cu(II) 4-{2-(2-methoxyethoxy)ethoxy} benzene sulfonate]
OD (2.0 mM) [1]: 0.68

Molecule: O=S(=O)([O-])c1ccccc1.O=S(=O)([O-])c1ccccc1.[Cu+2] [Cu(II) Benzene sulfonate]
OD (2.0 mM) [1]: 0.72

Molecule: Cc1ccc(S(=O)(=O)[O-])cc1.Cc1ccc(S(=O)(=O)[O-])cc1.[Cu+2] [Cu(II) p-toluene sulfonate]
OD (2.0 mM) [1]: 0.72

Molecule: O=S(=O)([O-])[O-].[K+].[K+] [K2SO4, reference compound]
inhibiting effect for a style-specific S RNase [1]: didn't show any positive inhibiting effect

Molecule: O=S(=O)([O-])[O-].[Li+].[Li+] [Li2SO4, reference compound]
inhibiting effect for a style-specific S RNase [1]: didn't show any positive inhibiting effect

Molecule: O=S(=O)([O-])[O-].[Na+].[Na+] [Na2SO4, reference compound]
inhibiting effect for a style-specific S RNase [1]: didn't show any positive inhibiting effect

Molecule: CCOCCOCC(=O)[O-].CCOCCOCC(=O)[O-].[Zn+2] [Zn(II) 2-ethoxy ethoxy acetate]
self-pollination rate (Hongro apple; concentration 0.01 mM): >5% | self-pollination rate (Hongro apple; concentration 0.03 mM): >20% | self-pollination rate (Hongro apple; concentration 0.10 mM): >50% | self-pollination rate (Hongro apple; concentration 0.30 mM): >60% | self-pollination rate (Hongro apple; concentration 1.0 mM): >60%

Molecule: COCCOCCOCC(=O)[O-].COCCOCCOCC(=O)[O-].[Zn+2] [Zn(II) 2-{2-(2-methoxyethoxy)ethoxy} acetate]
self-pollination rate (Hongro apple; concentration 0.01 mM): >10% | self-pollination rate (Hongro apple; concentration 0.03 mM): >30% | self-pollination rate (Hongro apple; concentration 0.10 mM): >50% | self-pollination rate (Hongro apple; concentration 0.30 mM): >50% | self-pollination rate (Hongro apple; concentration 1.0 mM): >50%

Molecule: CCOCCOc1ccc(S(=O)(=O)[O-])cc1.CCOCCOc1ccc(S(=O)(=O)[O-])cc1.[Zn+2] [Zn(II) 4-(2-ethoxyethoxy) benzene sulfonate]
OD (2.0 mM) [1]: 0.72

Molecule: COCCOCCOc1ccc(S(=O)(=O)[O-])cc1.COCCOCCOc1ccc(S(=O)(=O)[O-])cc1.[Zn+2] [Zn(II) 4-{2-(2-methoxyethoxy)ethoxy}benzene sulfonate]
OD (2.0 mM) [1]: 0.68

Molecule: O=S(=O)([O-])c1ccccc1.O=S(=O)([O-])c1ccccc1.[Zn+2] [Zn(II) Benzene sulfonate]
OD (2.0 mM) [1]: 0.74

Molecule: Cc1ccc(S(=O)(=O)[O-])cc1.Cc1ccc(S(=O)(=O)[O-])cc1.[Zn+2] [Zn(II) p-toluene sulfonate]
OD (2.0 mM) [1]: 0.72

Molecule: Ce2SO4 [reference compound]
inhibiting effect for a style-specific S RNase [1]: didn't show any positive inhibiting effect

More lines, now with the values ahead:

OD (2.0 mM) [1]: 0.72
Molecule: CCCOC(C)C(=O)[O-].CCCOC(C)C(=O)[O-].[Cu+2] (stereo not shown) [Cu(II) 2-propoxypropionate]

OD (2.0 mM) [1]: 0.61
Molecule: COCCOCCOC(C)C(=O)[O-].COCCOCCOC(C)C(=O)[O-].[Cu+2] (stereo not shown) [Cu(II) 2-{2-(2-methoxyethoxy)ethoxy} propionate]

OD (2.0 mM) [1]: 0.66
Molecule: COCCOCCOCCOCC(=O)[O-].COCCOCCOCCOCC(=O)[O-].[Cu+2] [Cu(II) 2-{2-(2-methoxyethoxy)ethoxy}ethoxyacetate]

OD (2.0 mM) [1]: 0.70
Molecule: CC(=O)[O-].CC(=O)[O-].[Cu+2] [Cu(II) Acetate]

OD (2.0 mM) [1]: 0.69
Molecule: C=CC(=O)[O-].C=CC(=O)[O-].[Cu+2] [Cu(II) Acrylate]

OD (2.0 mM) [1]: 0.69
Molecule: CCCC(=O)[O-].CCCC(=O)[O-].[Cu+2] [Cu(II) Butyrate]

OD (2.0 mM) [1]: 0.72
Molecule: C[C@H](O)C(=O)[O-].C[C@H](O)C(=O)[O-].[Cu+2] [Cu(II) L-lactate]

OD (2.0 mM) [1]: 0.72
Molecule: CCOCC(=O)[O-].CCOCC(=O)[O-].[Cu+2] [Cu(II) ethoxyacetate]

OD (2.0 mM) [1]: 0.72
Molecule: COCC(=O)[O-].COCC(=O)[O-].[Cu+2] [Cu(II) methoxyacetate]

OD (2.0 mM) [1]: 0.73
Molecule: CCCOCC(=O)[O-].CCCOCC(=O)[O-].[Cu+2] [Cu(II) propoxyacetate]

OD (2.0 mM) [1]: 0.74
Molecule: O=C[O-].O=C[O-].[Cu+2] [Cu(Il) Formate]

OD (2.0 mM) [1]: 0.61
Molecule: COCCOC(C)C(=O)[O-].COCCOC(C)C(=O)[O-].[Zn+2] (stereo not shown) [Zn(II) 2-(2-methoxyethoxy)propionate, Zn(II) 2-(2-methoxyethoxy) propionate]

OD (2.0 mM) [1]: 0.69
Molecule: CCCOCCOCCOCC(=O)[O-].CCCOCCOCCOCC(=O)[O-].[Zn+2] [Zn(II) 2-(2-propoxyethoxy)ethoxyacetate, Zn(II) 2-(2-propoxyethoxy) ethoxyacetate]

OD (2.0 mM) [1]: 0.73
Molecule: COC(C)C(=O)[O-].COC(C)C(=O)[O-].[Zn+2] (stereo not shown) [Zn(II) 2-methoxypropionate]

OD (2.0 mM) [1]: 0.72
Molecule: CCCOC(C)C(=O)[O-].CCCOC(C)C(=O)[O-].[Zn+2] (stereo not shown) [Zn(II) 2-propoxypropionate]

OD (2.0 mM) [1]: 0.67
Molecule: COCCOCCOCCOCC(=O)[O-].COCCOCCOCCOCC(=O)[O-].[Zn+2] [Zn(II) 2-{2-(2-methoxyethoxy)ethoxy} ethoxyacetate]

OD (2.0 mM) [1]: 0.62
Molecule: COCCOCCOC(C)C(=O)[O-].COCCOCCOC(C)C(=O)[O-].[Zn+2] (stereo not shown) [Zn(II) 2-{2-(2-methoxyethoxy)ethoxy}propionate]

OD (2.0 mM) [1]: 0.71
Molecule: CC(=O)[O-].CC(=O)[O-].[Zn+2] [Zn(II) Acetate]

OD (2.0 mM) [1]: 0.68
Molecule: CCCC(=O)[O-].CCCC(=O)[O-].[Zn+2] [Zn(II) Butyrate]

OD (2.0 mM) [1]: 0.75
Molecule: O=C[O-].O=C[O-].[Zn+2] [Zn(II) Formate]

OD (2.0 mM) [1]: 0.73
Molecule: C[C@H](O)C(=O)O.C[C@H](O)C(=O)O.[Zn] [Zn(II) L-lactate]

OD (2.0 mM) [1]: 0.73
Molecule: CCOCC(=O)[O-].CCOCC(=O)[O-].[Zn+2] [Zn(II) ethoxyacetate]

OD (2.0 mM) [1]: 0.70
Molecule: C=C(C)C(=O)[O-].C=C(C)C(=O)[O-].[Zn+2] [Zn(II) metacrylate]

OD (2.0 mM) [1]: 0.71
Molecule: COCC(=O)[O-].COCC(=O)[O-].[Zn+2] [Zn(II) methoxyacetate]

OD (2.0 mM) [1]: 0.75
Molecule: CCCOCC(=O)[O-].CCCOCC(=O)[O-].[Zn+2] [Zn(II) propoxyacetate]
